Entries after “also recorded” stand apart in the source; their conditions may differ.
Legend:
male Wistar rats [1] = assay: Open field test (OFT); format: in vivo
Method: OFT was performed in a black square plastic arena (80 × 80 × 40 cm) in an evenly lit and sound-proof testing room. Rats were individually placed into the centre and allowed to explore the arena for 30 min while their behaviour was recorded. The experimental arena was cleaned with 70% ethanol after each subject. Arena was virtually divided into a 5 × 5 grid of identical squares; 16 squares were located next to the walls (peripheral zone) and 9 squares were in the centre (central zone). Software EthoVision XT 14.0 software (Noldus, Netherlands) was used to capture raw data used in the calculation of the following dependent variables: trajectory length (cm; corrected for deviations of <3 cm) and its temporal dynamics in 5 min intervals; thigmotaxis (∑fperipheral zones/∑fall zones, f = frequency of appearance in the zone) reflecting the probability of appearance in the peripheral zone; Tcenter reflecting time spent in the centre of the arena (∑timecentral zones).
(§1) Locomotor activity in OFT (mean trajectory length across 5 min blocks) was evaluated using a 2 × 4 × 6 mixed factorial ANOVA with temporal testing onset (15 or 60 min) and drug treatment (2C-B-Fly-NBOMe 0.2, 1, or 5 mg/kg or ctrl) as between-subjects factors, and time blocks (6 × 5 min intervals) as a within-subjects factor. Spatial distribution of animal movement in OFT (thigmotaxis and T center) and PPI parameters (habituation, ASR and % of PPI) were each analysed using a 2 × 4 factorial ANOVA with temporal testing onset (15 or 60 min) and drug treatment (2C-B-Fly-NBOMe 0.2, 1, or 5 mg/kg or ctrl) as between-subjects factors.

male Wistar rats [2] = assay: Prepulse inhibition (PPI) of acoustic startle response (ASR); format: in vivo
Method: The effect of 2C-B-Fly-NBOMe on sensorimotor gating was evaluated by a PPI of ASR test. Two identical startle chambers (SR-LAB, San Diego Instruments, California) were used, each containing a sound-proof, evenly lit and ventilated enclosure with a plexiglass stabilimeter (8.7 cm inner diameter), a piezoelectric accelerometer for detecting amplitudes of the ASR, and a high-frequency loudspeaker producing acoustic stimuli. Amplitudes of the ASR were digitized for subsequent analysis. The experimental design was based on our previous studies ([Štefková et al., 2017]; [Šíchová et al., 2018]). Two days before the experiment, the animals were habituated to the startle chambers with a background white noise (75 dB) for 5 min, followed by six presentations of pulse-alone stimuli (125 dB, 40 ms) with pseudorandomized inter-stimulus intervals. […]
Habituation was calculated by the percentage reduction in the ASR from the initial six baseline trials to the final six trials. PPI was calculated as [100 - (mean response for the prepulse - pulse trial/startle response for the single pulse trials) × 100]. […]
as §1

male Wistar rats [3] = assay: Thermoregulation (rectal temperature); format: in vivo; details: 5 mg/kg s. c.
Method: For the assessment of rectal temperature changes, rats were housed individually or in groups of five per cage. They were treated with 2C-B-Fly-NBOMe (5 mg/kg) or ctrl solution s. c. at 9:00 h. During the measurements, each rat was briefly immobilized in a plexiglass tube and then returned to its home cage. In total, 14 measurements were performed: […] for setting the baseline temperature, and then 4 subsequent 30 min measurements (09:30–11:00 h) and 6 hourly measurements (12:00–17:00 h).
Data from thermoregulatory experiments were analysed using 2 × 2 × 14 mixed factorial design with drug treatment (2C-B-Fly-NBOMe at 5 mg/kg or ctrl) and home cage conditions (individually and group-housed animals) as between-subjects factors and time (14 measurements) as a within-subjects factor. The baseline temperatures of animals were compared in the same manner.

male Wistar rats [4] = assay: Observation of 5-HT2A-related behaviour (head-twitch response, wet dog shakes); details: rat, in vivo
5-HT2A receptor [5] = system: 5-HT2A receptor; design: method as in Ettrup et al., 2011; details: GF-62 cells; among the examined NBOMes; ref Ettrup et al., 2011; cited from earlier work
5-HT2A receptor [6] = system: 5-HT2A receptor; design: method as in Ettrup et al., 2011; details: among the examined NBOMes; ref Ettrup et al., 2011; cited from earlier work
[7] = three different systems; ref Nykodemová et al., 2021; cited from earlier work
[8] = 0.2, 1 and 5 mg/kg s. c., 15 and 60 min onset

Structure (SMILES): COc1ccccc1CNCCc1c2c(c(Br)c3c1OCC3)OCC2 [2C-B-Fly-NBOMe]
- Tcentre (time spent in the centre of the arena) (male Wistar rats [1]; [8]): not affected
- thigmotaxis (male Wistar rats [1]; [8]): not affected
- total trajectory length (locomotor activity) versus ctrl (male Wistar rats [1]; 0.2, 1 and 5 mg/kg s. c., 15 and 60 min testing onset): dose-dependently reduced; also recorded: significant differences in all remaining groups versus ctrl except for 0.2 mg/kg of 2C-B-Fly-NBOMe in the 60 min onset
- Locomotor habituation (male Wistar rats [1]; 0.2, 1 and 5 mg/kg s. c., both testing onsets): dose-dependently disturbed
- locomotion in 5 min time blocks versus ctrl (male Wistar rats [1]; 15 min onset, 1 mg/kg s. c., p < 0.05): persisted until the fourth block
- locomotion in 5 min time blocks versus ctrl (male Wistar rats [1]; 15 min onset, 5 mg/kg s. c., p < 0.05–0.001): significant hypolocomotion during the whole session
- locomotion in 5 min time blocks versus ctrl (male Wistar rats [1]; 15 min onset, all the doses (0.2, 1, 5 mg/kg s. c.), p < 0.001): significantly decreased activity in the first three blocks
- locomotion in 5 min time blocks versus ctrl (male Wistar rats [1]; 60 min onset, 1 mg/kg and 5 mg/kg groups, p < 0.01–0.001): persisted to the fifth block
- locomotion in 5 min time blocks versus ctrl (male Wistar rats [1]; 60 min onset, all groups (0.2, 1, 5 mg/kg s. c.), p < 0.05–0.001): reduced activity in the first two blocks
- percentage of PPI (male Wistar rats [2]; 0.2, 1 and 5 mg/kg s. c., ANOVA treatment factor): not by treatment
- Habituation of ASR (male Wistar rats [2]; 0.2, 1 and 5 mg/kg s. c., p < 0.05): significantly affected by drug treatment
- ASR versus ctrl (male Wistar rats [2]; all doses (0.2, 1, 5 mg/kg s. c.), 15 and 60 min onset, p < 0.001): strongly disrupted; also recorded: significantly diminished ASR; also recorded: strongly attenuates ASR
- trend of hypothermic reaction in group-housed animals (male Wistar rats [3]; animals housed in groups): not in animals housed in groups
- hypothermic trend in individually housed animals (male Wistar rats [3]; individually housed, first 90 min after application): the statistical difference was not significant
- effect of the treatment on body temperature (ANOVA) (male Wistar rats [3]; p < 0.05): significant effect of the treatment
- behaviour typical of 5-HT2A receptor activation (head-twitch response or wet dog shakes) (male Wistar rats [4]): did not demonstrate any behaviour
- binding affinity to 5-HT2A receptor (5-HT2A receptor [5]): highest binding affinity
- intrinsic activity (5-HT2A receptor [6]): the lowest
- number of phase I metabolites [7]: thirty-five
- number of phase II metabolites [7]: nine

— article PMC10033663, “Acute pharmacological profile of 2C-B-Fly-NBOMe in male Wistar rats—pharmacokinetics, effects on behaviour and thermoregulation” (Frontiers in Pharmacology, 2023)
